Test results: patent US12414927B2, “CXCR5 antagonists and methods of treating diseases or disorders using same” (YALE UNIVERSITY, priority 2020, dated 2025)
“Also recorded” adds a separate entry of the source.

Assays:
human CXCR5 [1] = target: T1, human CXCR5 (Homo sapiens, UniProt P32302); assay: Calcium assay: inhibition of Gaq-mediated Ca2+ flux at an EC80 of CXCL13 agonist; format: cell-based; settings: HEK-293 cells transfected with human CXCR5, in the presence or absence of BSA
T1 construct: expressed in transfected cells; host or cells: HEK-293 (division-arrested, stably expressing)
T1 sequence (P32302 1-372): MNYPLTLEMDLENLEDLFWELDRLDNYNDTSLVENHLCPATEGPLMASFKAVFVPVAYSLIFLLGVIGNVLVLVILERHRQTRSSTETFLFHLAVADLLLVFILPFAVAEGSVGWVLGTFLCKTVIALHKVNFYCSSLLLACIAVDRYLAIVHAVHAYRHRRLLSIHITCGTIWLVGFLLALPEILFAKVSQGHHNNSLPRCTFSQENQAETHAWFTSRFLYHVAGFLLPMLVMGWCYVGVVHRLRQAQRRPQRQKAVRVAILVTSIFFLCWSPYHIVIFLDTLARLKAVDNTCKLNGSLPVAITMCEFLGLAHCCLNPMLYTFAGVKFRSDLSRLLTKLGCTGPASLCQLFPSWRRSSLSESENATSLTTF
Procedure: FIGS. 1A-1B illustrate inhibition of Gaq-mediated Ca^2+ flux for certain compounds of the disclosure. The assays use HEK cells stably expressing functional human CXCR5 and measure inhibition of Gaq-mediated Ca^2+ flux at an EC80 of CXCL13 agonist. Assays were performed in HBSS buffer (FIG. 1A) and HBSS buffer+1% BSA (FIG. 1B); the compounds were active in the presence of the bovine serum albumin, without significant change in an IC50 value. Compound 1 is 2-(3-methyl-2-(2-methylprop-1-en-1-yl)benzamido)-2,3-dihydro-1H-indene-2-carboxylic acid; Compound 2 is 2-(2-isobutyl-3-methylbenzamido)-2,3-dihydro-1H-indene-2-carboxylic acid.
(§1) These assays were performed in division-arrested HEK-293 cells transfected with human CXCR5. The CXCL13 ligand was used as agonist.
The calcium assay allows homogeneous measurement of intracellular calcium changes caused by activation of G-protein coupled receptors or calcium channels.
For adherent cells, plate 50K to 70K cells/well for a 96 well plate and 12K to 20K cells/well for a 384 well plate the day before the experiment. Add 100 μl/well of cell suspension to 96-well plates or 25 μl/well to 384-well plates, allow cells to attach and grow overnight for 16 to 24 hours in cell culture incubators. Prior to dye loading the plate, examine the cells for confluency and overall health.
1. […]

human CXCR5 [2] = target: T1, human CXCR5; assay: Cyclic AMP assay: inhibition of Gai-mediated decrease of cAMP at an EC80 of CXCL13; format: cell-based; settings: HEK-293 cells transfected with human CXCR5, in the presence or absence of BSA
Procedure: FIGS. 2A-2B illustrate inhibition of Gat-mediated decrease of cAMP for certain compounds of the disclosure. The assays use HEK cells stably expressing functional human CXCR5 and measure inhibition of Gat-mediated decrease of cAMP at an EC80 of CXCL13. Assays were performed in HBSS buffer (FIG. 2A) and HBSS buffer+1% BSA (FIG. 2B); the compounds were active in the presence of the bovine serum albumin, without significant change in an IC50 value.
as §1

human CXCR5 [3] = target: T1, human CXCR5; assay: Binding to human CXCR5
[4] = In vivo PK, single dose by IV, PO or IP route
Procedure: Three groups of 30 mice (male, CD-1) were dosed via one route per group (PO, IP, or IV). Single dose level was used per route of administration. Dosing level (mg/kg): IV (1 mg/kg); PO (10 mg/kg); and IP (10 mg/kg). […] Blood collections were terminal for each mouse, so triplicate data was obtained for each time point.

Raji cell line = assay: Proliferation of CXCR5-expressing Burkitt's B-cell lymphoma cell line over 7 days; format: cell-based; settings: 7-day period, media containing 5% FBS, various doses, DMSO negative control
Excerpt: FIG. 3 illustrates proliferation of the CXCR5-expressing Burkitt's B-cell lymphoma cell line (Raji cell line) over a 7-day period in the media containing 5% FBS in the presence of various doses of Compound 2 or Compound 3 (1-(2-isobutyl-3-methylbenzamido)-2,3-dihydro-1H-indene-1-carboxylic acid). […] DMSO is shown as a negative control.
At this time a Tfh or AITL cell line has not been developed. Thus, a B-cell lymphoma cell line (Raji) was used to determine whether the contemplated compounds can inhibit proliferation. In this experiment, Compound 2 was compared to analogue Compound 3 over a 7-day period (FIG. 3).

[5] = Preliminary toxicity/tolerability study, 40 mg/kg BID by oral gavage; format: in vivo, NSG mice
Procedure: FIG. 8 illustrates absolute body weight for mice treated with Compound 2, 40 mg/kg BID. 5 NSG mice (highly immunodeficient, same strain as in the in vivo efficacy study) were tested. Compound 2 was administered via oral gavage, BID (twice a day) for 14 days. […] Body weight was monitored daily. Mean body weight loss was <4%, confirming tolerability.
It was decided that a dose of 40 mg/kg would be used in the AITL PDX studies (design outlined in FIG. 6). Prior to the study, preliminary 1-week toxicity studies were performed on the NSG immunocompromised mice (NOD/SCID, IL-2R knockout) that would be used on the AITL PDX study (FIG. 8).

murine CXCR5 = target: T2, murine CXCR5 (Mus musculus, UniProt Q04683); assay: Binding to murine CXCR5
T2 sequence (Q04683 1-374): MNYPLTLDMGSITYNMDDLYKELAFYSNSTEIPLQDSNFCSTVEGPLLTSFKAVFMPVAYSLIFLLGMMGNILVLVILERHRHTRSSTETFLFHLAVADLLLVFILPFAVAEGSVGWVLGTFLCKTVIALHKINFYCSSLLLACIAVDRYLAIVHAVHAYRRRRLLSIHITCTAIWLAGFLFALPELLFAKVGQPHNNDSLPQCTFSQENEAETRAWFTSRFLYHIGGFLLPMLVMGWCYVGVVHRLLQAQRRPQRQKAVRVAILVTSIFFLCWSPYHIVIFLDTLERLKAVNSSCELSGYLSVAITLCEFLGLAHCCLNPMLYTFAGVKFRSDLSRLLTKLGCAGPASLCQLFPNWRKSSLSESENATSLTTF

[6] = In vivo PK, oral doses of 10, 30 and 60 mg/kg; parameters: species or system female CB.17 SCID mice; settings: oral 10, 30 and 60 mg/kg
Procedure: FIG. 5 illustrates in vivo PK results for multiple doses of Compound 2 administered orally. 9 female CB.17 SCID mice per group were used except for vehicle control group, where 15 mice were tested. Three drug doses were used (10, 30 and 60 mg/kg), with dosing volume of 10 mL/kg (0.200 mL/20 g mouse) for each dose. Volume was adjusted for body weight, and analysis was run at 6 different time points.
(§2) For suitability of murine AITL patient derived xenografts (PDX) studies, pharmacokinetics (PK) of Compound 2 were determined by IV, oral, and IP administration (FIG. 4). These parameters provided confidence for oral administration studies at different doses and are suitable for further PK studies at 24-hour measurement at different oral doses. The study allowed one to determine the dose that results in a blood level of ˜IC80.

[7] = 10-day oral dosing PK/tolerability study, 30 mg/kg every 12 hours; format: in vivo, female CB.17 SCID mice
Procedure: FIG. 6 illustrates a dosing scheme for oral administration of Compound 2 over 10 days. Female CB.17 SCID mice were dosed according to the table shown: Groups 1-2 were treated with the drug and Group 3 animals were treated with vehicle control. Mice were orally dosed at 30 mg/kg every 12 hours for 10 days. Group 2 (18 animals total, alternating animals) were used for PK blood analysis, and Group 1 (5 animals total) were sacrificed at end point for gross necropsy.
FIGS. 7A-7B illustrate in vivo PK results for multiple doses of Compound 2 (30 mg/kg) administered orally over 10 days. […] No change in slope of decrease indicated no change in rate of metabolism.
as §2

[8] = tested on: patient-derived AITL tissue; assay: In vivo efficacy in AITL patient-derived xenograft (human CD45+ cells)
Procedure: FIGS. 9A-9B illustrate CD45 levels in bone marrow (FIG. 9A) and peripheral blood (FIG. 9B) of mice treated with Compound 2 or vehicle. […] (NOD/SCID, IL-2R knockout) mice (8 animals per group) were implanted with patient-derived AITL tissue. Compound 2 binds to human but not to murine CXCR5. Animals were treated with vehicle or 40 mg/kg Compound 2 via oral gavage 2×/day. t test comparing all mice at the time of sacrifice was performed to analyze the data. Error bars—SEM.
For in vivo efficacy study, mice were implanted with AITL PDX and engraftment levels were quantified in each animal as circulating human CD45+ cells levels in blood. Dosing began when average engraftment reached 0.13%, and the cohort was treated for 42 days. The mice were monitored weekly for weight loss and daily for any clinical mortality observation. Only 1 treated mouse lost weight (14%) during the first week but gained it back and was otherwise stable similar to the other mice. Blood was drawn at 0, 14, and 28 days after the dosing started, and before euthanasia to measure tumor burden. […] When mice were sacrificed, various organs were removed and stored at −80° C. At the end of the study (42 days of dosing), 3 and 5 mice treated with vehicle or Compound 2, respectively, were still alive. […] The absolute percentage in the blood was 44.5% and 57.6% for treated and untreated mice, respectively.
PDX was implanted into immunocompromised NSG mice.
Starting at around 21 days after implantation, animals are examined for engraftment every 1-2 weeks. Engraftment is determined by measuring human CD45+ cells in blood (flow cytometry).
After engraftment is observed, animals are dosed by oral gavage every 10-14 hours with vehicle (untreated groups) or with compound YU241279 at 40 mg/kg (treated groups).
Animals are evaluated for general health daily and weighed twice per week; circulating human CD45+ cells are measured on days 14 and 28 after treatment initiation to evaluate tumor progression. Based on day 28 analysis, treatment may be extended (the decision to extend the dosing is based on the health status of the vehicle group: CD45 (<50%), lack of morbidity by day 28); Readouts at conclusion of the study include spleen weight, survival, and flow cytometry assessment for human CD45+ cells in blood and bone marrow.

[9] = 40 mg/kg oral gavage BID for 14 days, 5 NSG mice
[10] = 40 mg/ml (so in the source), NSG mice
[11] = at death, 40 mg/kg oral, treated mice

With `CC(C)=Cc1c(C)cccc1C(=O)NC1(C(=O)O)Cc2ccccc2C1` [Compound 1, 2-(3-methyl-2-(2-methylprop-1-en-1-yl)benzamido)-2,3-dihydro-1H-indene-2-carboxylic acid] the “activity in calcium assay (inhibition of Gaq-mediated Ca2+ flux)” value (human CXCR5 [1]) was “sub-micromolar” and the “activity in cyclic AMP assay (inhibition of decrease of cAMP)” value (human CXCR5 [2]) was “sub-micromolar”.
In the case of `Cc1cccc(C(=O)NC2(C(=O)O)Cc3ccccc3C2)c1CC(C)C` [Compound 2, 2-(2-isobutyl-3-methylbenzamido)-2,3-dihydro-1H-indene-2-carboxylic acid], the “binding to human CXCR5” value (human CXCR5 [3]) is reported as “binds”, the clinical observations ([4]; IV arm subsequently dosed at 0.2 mg/mL delivered at 5 mL/kg) is reported as “without any adverse observations” and the clinical observations ([4]; original IV group, single dose) is reported as “labored breathing, decreased activity, and death”. For the same compound, the bioavailability ([4]; pharmacokinetic study in mice) was “confirmed bioavailability”, the “activity in calcium assay (inhibition of Gaq-mediated Ca2+ flux)” value (human CXCR5 [1]) was “sub-micromolar” and the “proliferation of Raji cells” value (Raji cell line) was “dose-dependent decrease in proliferation; also recorded: clearly inhibited proliferation”. The “mean body weight loss” value [5, 9] was less than 4%, the morbidity [5, 9] was “No morbidity was observed” and the “body weight gain compared with vehicle” value [5, 10] was “did not gain weight as fast as the mice treated with vehicle”. For the same compound, the other abnormalities [5, 10] was “no other abnormalities observed”, the “binding to murine CXCR5” value (murine CXCR5) was “not” and the “compound blood level versus compound amount administered” value [6] was “clear increase in compound blood level versus compound amount administered”. For the same compound, the tolerability ([7]; 10-day study at 30 mg/kg oral) was “demonstrated tolerability”, the health of animals ([7]; oral 30 mg/kg every 12 hours for 10 days, during dosing and for 2 weeks following) was “good health” and the “change of compound metabolism over dosing period” value ([7]; oral 30 mg/kg every 12 hours, 10 days, first two doses versus 20th dose, 30 mg/kg) was “compound metabolism was unchanged; also recorded: no change metabolism”. For the same compound, the “blood levels relative to IC50 between doses” value ([7]; oral 30 mg/kg, 12 hours between doses) was “remained above IC50 for full 12 hours”, the “tumor loads in peripheral blood and bone marrow compared to vehicle control” value ([8]; 40 mg/kg oral gavage 2x/day, at time of sacrifice) was “Significantly reduced tumor loads” and the “mice still alive at the end of the study” value ([8]; 42 days of dosing, 8 animals per group) was 5. The “absolute percentage of human CD45+ in the blood” value [8, 11] was 44.5%, the “absolute percentage of human CD45+ in the bone marrow” value [8, 11] was 10.6% and the “weight loss of the only treated mouse that lost weight” value ([8]; first week of dosing, 1 treated mouse, regained afterwards) was 14%. The “activity in cyclic AMP assay (inhibition of decrease of cAMP)” value (human CXCR5 [2]) was “sub-micromolar”.
With `Cc1cccc(C(=O)NC2(C(=O)O)CCc3ccccc32)c1CC(C)C` (stereo not shown) [Compound 3, 1-(2-isobutyl-3-methylbenzamido)-2,3-dihydro-1H-indene-1-carboxylic acid] the “proliferation of Raji cells” value (Raji cell line) was “less potent than Compound 2”.
